Measured values taken from patent US20240415790A1, “A COMPOSITION FOR USE IN THE TREATMENT OF INTERVERTEBRAL DISC HERNIATION” (STAYBLE THERAPEUTICS AB, priority 2020, published 2024).
Values joined by “and” are separate entries in the source; they are usually repeats but may differ in a detail not shown here. Identical values can stand only once.

How the values were obtained:
[1] = system: patients with chronic discogenic low back pain; test: Clinical study, exploratory VAS back and leg pain and ODI; format: in vivo, human
From the text: Scoring of visual analog scale (VAS) for both back and leg pain and Oswestry Disability Index (ODI) were used as exploratory objectives. The sample size was not based on power calculations but was considered appropriate for a single ascending dose study to provide initial safety data on 3 different dose levels of the LA formulation. The study has been registered on the ClinicalTrials.gov website and on the EU Clinical Trials Register. It was approved by the Stockholm Regional Ethics Committee (approval No. 2016-2323-31/4) and by the Swedish Medical Products Agency (approval No. 5.1-2016-86227).
Disability was evaluated using the ODI.

[2] = system: patients with chronic discogenic low back pain; test: Randomized placebo-controlled single ascending dose study, safety and tolerability of intradiscal injection; format: in vivo, human
From the text: The study was a randomized, double-blinded, placebo-controlled, single ascending dose study with the primary objective to evaluate safety and tolerability following intradiscal injection of LA in Omnipaque or placebo (Omnipaque) in 15 patients with chronic discogenic low back pain. The secondary objective was to assess effects on the NP and disc height using T2-weighted MRI. […] Prior to dose escalation, the safety review committee assessed all safety data up to Visit 3 (1 week after treatment). In case of any safety or tolerability concerns, dosing could be discontinued, or the planned dose could be lowered. The test product in this study was containing the active ingredient (S)-LA, which was provided to the site as a sterile solution in a syringe for single use. The LA doses administered were 45, 90 and 180 mg in a volume of 1.5 mL, corresponding to LA concentrations of 30, 60 and 120 mg/mL. The formulation for administration was prepared extempore and contained the contrast agent iohexol (Omnipaque™) and water for injection. The final concentration of iohexol in the injected solution was 388 mg/mL. Small amounts of tromethamine, Na2Ca edetate and HCl were also present. The solution was clear and colourless to slightly coloured. At the treatment day, patients received premedication with a sedative or anxiolytic and antibiotics, given as an i.v. infusion approximately 15 min before the intradiscal injection. The patient was placed in the right lateral decubitus position and injection was done using the two-needle technique under fluoroscopy guidance. Once correct intradiscal needle placement had been confirmed, a small volume (approximately 0.5 mL) of the formulation was first injected slowly (during half a minute) to verify that the distribution of the injectate was confined to the disc and that there was no leakage. If no leakage had occurred within half a minute, this procedure was repeated twice until the entire volume (1.5 mL) had been injected. If there was any leakage from the disc during injection, either after injection of a small volume or the entire volume (1.5 mL), the injection was interrupted. […] All patients stayed overnight at the clinic after the injection, for observation and safety assessments. After leaving the clinic, patients were to be treated with analgesics and/or other measures according to standard clinical practice. They were also given advice on restricted physical activity during the first week. Physical examination, blood pressure, heart rate, electrocardiogram (ECG), clinical chemistry and hematology were assessed using routine clinical methods. Pain during and 15 min after injection was measured using a VAS scale (0-100 mm) and the patient reported whether or not the pain reproduced the pain normally experienced in terms of location and type of pain. The distribution of Omnipaque within the IVD was documented according to the Dallas discogram scale. Local site reactions to the injection were noted, and AEs were graded for seriousness, intensity, and causality to the treatment. SAEs were defined according to the International Conference of Harmonisation guideline E2A.

## CC(O)C(=O)O (stereo not shown) [LA, lactic acid]
[1]; 45 mg group, baseline
  Leg pain (VAS) at baseline: no leg pain
[1]; 90 mg group
  Mean leg pain at screening: 3 mm
[1]; 180 mg group
  Mean leg pain at screening: 14 mm
[1]; LA 45 mg, Visit 1 (Screening), baseline
  VAS (mm) for cLBP, Mean (SD): 19 mm and 19 (10) mm
[1]; LA 45 mg, Visit 5 (3 months)
  VAS (mm) for cLBP, Mean (SD): 22 (8) mm
[1]; LA 45 mg, Visit 6 (6 months)
  VAS (mm) for cLBP, Mean (SD): 52 (28) mm
[1]; LA 45 mg, Visit 7 (12 months)
  VAS (mm) for cLBP, Mean (SD): 59 (40) mm
[1]; LA 90 mg, Visit 1 (Screening), baseline
  VAS (mm) for cLBP, Mean (SD): 44 mm and 44 (25) mm
[1]; LA 90 mg, Visit 5 (3 months)
  VAS (mm) for cLBP, Mean (SD): 44 (22) mm
[1]; LA 90 mg, Visit 6 (6 months)
  VAS (mm) for cLBP, Mean (SD): 44 (6) mm
[1]; LA 90 mg, Visit 7 (12 months)
  VAS (mm) for cLBP, Mean (SD): 34 (14) mm
[1]; LA 180 mg, Visit 1 (Screening), baseline
  VAS (mm) for cLBP, Mean (SD): 52 mm and 52 (18) mm
[1]; LA 180 mg, Visit 5 (3 months)
  VAS (mm) for cLBP, Mean (SD): 27 (15) mm
[1]; LA 180 mg, Visit 6 (6 months)
  VAS (mm) for cLBP, Mean (SD): 28 (32) mm
[1]; LA 180 mg, Visit 7 (12 months)
  VAS (mm) for cLBP, Mean (SD): 61 (26) mm
[2]; LA 30 mg/ml (n = 3)
  Adverse events by causality, Possible, m number of events: 0
  Adverse events by causality, Possible, n (%) number of patients: 0
  Adverse events by causality, Probable, m number of events: 1
  Adverse events by causality, Probable, n (%) number of patients: 1 (33%)
  Adverse events by causality, Unlikely, m number of events: 3
  Adverse events by causality, Unlikely, n (%) number of patients: 2 (67%)
  Adverse events by severity, Mild, m number of events: 2
  Adverse events by severity, Mild, n (%) number of patients: 1 (33%)
  Adverse events by severity, Moderate, m number of events: 2
  Adverse events by severity, Moderate, n (%) number of patients: 1 (33%)
  Adverse events by severity, Severe, m number of events: 0
  Adverse events by severity, Severe, n (%) number of patients: 0
  Any adverse event, m number of events: 4
  Any adverse event, n (%) number of patients: 2 (67%)
  Any serious adverse event, m number of events: 0
  Any serious adverse event, n (%) number of patients: 0
[2]; LA 60 mg/ml (n = 3)
  Adverse events by causality, Possible, m number of events: 0
  Adverse events by causality, Possible, n (%) number of patients: 0
  Adverse events by causality, Probable, m number of events: 3
  Adverse events by causality, Probable, n (%) number of patients: 3 (100%)
  Adverse events by causality, Unlikely, m number of events: 0
  Adverse events by causality, Unlikely, n (%) number of patients: 0
  Adverse events by severity, Mild, m number of events: 1
  Adverse events by severity, Mild, n (%) number of patients: 1 (33%)
  Adverse events by severity, Moderate, m number of events: 2
  Adverse events by severity, Moderate, n (%) number of patients: 2 (67%)
  Adverse events by severity, Severe, m number of events: 0
  Adverse events by severity, Severe, n (%) number of patients: 0
  Any adverse event, m number of events: 3
  Any adverse event, n (%) number of patients: 3 (100%)
  Any serious adverse event, m number of events: 0
  Any serious adverse event, n (%) number of patients: 0
[2]; LA 120 mg/ml (n = 3)
  Adverse events by causality, Possible, m number of events: 1
  Adverse events by causality, Possible, n (%) number of patients: 1 (33%)
  Adverse events by causality, Probable, m number of events: 4
  Adverse events by causality, Probable, n (%) number of patients: 2 (67%)
  Adverse events by causality, Unlikely, m number of events: 3
  Adverse events by causality, Unlikely, n (%) number of patients: 2 (67%)
  Adverse events by severity, Mild, m number of events: 6
  Adverse events by severity, Mild, n (%) number of patients: 3 (100%)
  Adverse events by severity, Moderate, m number of events: 2
  Adverse events by severity, Moderate, n (%) number of patients: 1 (33%)
  Adverse events by severity, Severe, m number of events: 0
  Adverse events by severity, Severe, n (%) number of patients: 0
  Any adverse event, m number of events: 8
  Any adverse event, n (%) number of patients: 3 (100%)
  Any serious adverse event, m number of events: 0
  Any serious adverse event, n (%) number of patients: 0
[2]; patients, intradiscal 45-180 mg
  Safety and tolerability of the treatment: safe and tolerable
